Data taken from patent US9907637B2, “Modular bioresorbable or biomedical, biologically active supramolecular materials” (SupraPolix B.V., priority 2005, dated 2018).

Key:
[1] = Extraction of peptide out of polymer films with water, LC-MS; assay type: physicochemical; conditions: for peptide dissolved: 80 minutes at 37° C. in a total volume of 5 mL water, 4 mole % peptide; for extraction: water 37° C., 4 mole % peptide in film of polymer of example 14
Method: The extraction of the peptide of example 18 and the peptide GRGDS without a UPy-unit out of films of example 29a was investigated with LC-MS measurements. The amount of peptide that was mixed in the polymeric materials is in both cases 4 mole %. Calibration was performed by quantification of one fragment of the parent ion (MS^2) of the peptides using different concentrations of the peptides. The surface area of the corresponding peak (in the total ion count) was calculated with the ICIS algorithm. The extraction experiments were performed as follows: the film was incubated at 37° C. for 5 minutes in 1 mL water, then the water was removed and the concentration of peptide was measured with the described LC-MS procedure (time-point: 5 minutes); another 1 mL water was added to the film which was subsequently incubated again for 5 minutes at 37° C. followed by removal of the water which was analysed with the LC-MS method (time-point: 10 minutes); another 1 mL water was added to the film and the sample was incubated for 10 minutes at 37° C. followed by removal of the water which was analysed with the LC-MS method (time-point: 20 minutes); incubation at 37° C. in another 1 mL water for 20 minutes, followed by removal of the water which was analysed with the LC-MS method (time-point: 40 minutes); and incubation at 37° C. in another 1 mL water for 40 minutes, followed by removal of the water which was analysed with the LC-MS method (time-point: 80 minutes).

[2] = as above; assay type: physicochemical; conditions: 2 hours at 37° C. in 1 mL water, 4 mole % peptide

| peptide dissolved [1] | extraction ([1]; time 5 min) | extraction ([1]; time 10 min) | extraction ([1]; time 20 min) | dissolution of peptide from film ([1]; within 5 minutes, water at 37° C.) | peptide dissolved [2] | Substance |
| --- | --- | --- | --- | --- | --- | --- |
| 105% | 91% | 97% | 100% | almost all of the peptide is dissolved | 101% | GRGDS |
| 76% | 39% | 60% | 76% |  | 64% | UPy-GRGDS [Example 18] |
